Source: PubChem BioAssay AID330 (DTP/NCI, 2004)
Values joined by “and” are separate entries in the source; they are usually repeats but may differ in a detail not shown here. Identical values can stand only once. Toxic doses and inconclusive results are not listed.

System: P388 leukemia ip, CD2F1 mice, survival T/C
Test: NCI In Vivo Anticancer Drug Screen. Data for tumor model P388 Leukemia (intraperitoneal) in CD2F1 (CDF1) mice
Details: endpoint: median survival time, higher = longer survival
Method in brief: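 Mice carrying the transplanted tumor received test compound or vehicle. Survival was recorded in each group, and the value is the treated-group measurement divided by that of the vehicle-treated control group.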

[1] = dose: 25.0 mg/kg/injection, schedule: Q04DX003 (ip), vehicle: Klucel (hydroxypropylcellulose) (HPC)
[2] = dose: 50.0 mg/kg/injection, schedule: Q04DX003 (ip), vehicle: Klucel (hydroxypropylcellulose) (HPC)
[3] = dose: 100.0 mg/kg/injection, schedule: Q04DX003 (ip), vehicle: Klucel (hydroxypropylcellulose) (HPC)

CC(=O)OC1C/C(C)=C/CCC(C)/C=C/C2(C)CCC(C(C)(C)O)C12 (stereo not given)
T/C (dose: 8.0 mg/kg/injection, schedule: Q01DX009 (ip), vehicle: Klucel (hydroxypropylcellulose) (HPC)): 105 % of control
T/C (dose: 16.0 mg/kg/injection, schedule: Q01DX009 (ip), vehicle: Klucel (hydroxypropylcellulose) (HPC)): 106 % of control
T/C (dose: 32.0 mg/kg/injection, schedule: Q01DX009 (ip), vehicle: Klucel (hydroxypropylcellulose) (HPC)): 106 % of control
T/C (dose: 64.0 mg/kg/injection, schedule: Q01DX009 (ip), vehicle: Klucel (hydroxypropylcellulose) (HPC)): 106 % of control

CCOC(=O)C1(COS(=O)(=O)c2ccc(C)cc2)C(=O)Nc2ccccc21 (stereo not given)
T/C (dose: 50.0 mg/kg/injection, schedule: Q01DX009 (ip), vehicle: Klucel (hydroxypropylcellulose) (HPC)): 100 % of control
T/C (dose: 100.0 mg/kg/injection, schedule: Q01DX009 (ip), vehicle: Klucel (hydroxypropylcellulose) (HPC)): 100 % of control
T/C (dose: 200.0 mg/kg/injection, schedule: Q01DX009 (ip), vehicle: Klucel (hydroxypropylcellulose) (HPC)): 97 % of control

COc1ccc(CC2C(=O)NC(C)C(=O)N(C)C3Cc4ccc(cc4)Oc4cc(ccc4OC(C)=O)CC(C(=O)NC(C)C(=O)NC(C)C(=O)N2C)N(C)C3=O)cc1 (stereo not given)
T/C (dose: 2.0 mg/kg/injection, schedule: Q01DX009 (ip), vehicle: none): 167 % of control

CC(O)CN1C=NC(C)C1 (stereo not given)
T/C (dose: 50.0 mg/kg/injection, schedule: Q01DX009 (ip), vehicle: saline): 95 % of control
T/C (dose: 100.0 mg/kg/injection, schedule: Q01DX009 (ip), vehicle: saline): 100 % of control
T/C (dose: 200.0 mg/kg/injection, schedule: Q01DX009 (ip), vehicle: saline): 103 % of control

CN(C)CCCNc1ccc(NCCCN(C)C)c2c1C(=O)c1ccccc1C2=O
T/C (dose: 3.75 mg/kg/injection, schedule: Q01DX009 (ip), vehicle: saline): 100 % of control
T/C (dose: 7.5 mg/kg/injection, schedule: Q01DX009 (ip), vehicle: saline): 102 % of control
T/C (dose: 12.5 mg/kg/injection, schedule: Q01DX009 (ip), vehicle: water): 104 % of control
T/C (dose: 15.0 mg/kg/injection, schedule: Q01DX009 (ip), vehicle: saline): 102 % of control
T/C (dose: 25.0 mg/kg/injection, schedule: Q01DX009 (ip), vehicle: water): 103 % of control
T/C (dose: 30.0 mg/kg/injection, schedule: Q01DX009 (ip), vehicle: saline): 100 % of control
T/C (dose: 60.0 mg/kg/injection, schedule: Q01DX009 (ip), vehicle: saline): 100 % of control

CS(=O)(=O)ON1C(=O)c2ccccc2C1=O
T/C [1]: 104 % of control and 108 % of control
T/C [2]: 105 % of control and 110 % of control
T/C [3]: 103 % of control and 95 % of control
T/C (dose: 200.0 mg/kg/injection, schedule: Q04DX003 (ip), vehicle: Klucel (hydroxypropylcellulose) (HPC)): 100 % of control

Nc1nnn(/N=C\C=N/n2nnc(N)n2)n1
T/C (dose: 100.0 mg/kg/injection, schedule: Q01DX001 (ip), vehicle: Klucel (hydroxypropylcellulose) (HPC)): 94 % of control
T/C (dose: 200.0 mg/kg/injection, schedule: Q01DX001 (ip), vehicle: Klucel (hydroxypropylcellulose) (HPC)): 102 % of control
T/C (dose: 400.0 mg/kg/injection, schedule: Q01DX001 (ip), vehicle: Klucel (hydroxypropylcellulose) (HPC)): 105 % of control

O=C(NC1CCCCC1NC(=O)C12CC3CC(CC(C3)C1)C2)C12CC3CC(CC(C3)C1)C2 (stereo not given)
T/C (dose: 6.0 mg/kg/injection, schedule: Q01DX005 (ip), vehicle: Klucel (hydroxypropylcellulose) (HPC)): 95 % of control
T/C (dose: 12.0 mg/kg/injection, schedule: Q01DX005 (ip), vehicle: Klucel (hydroxypropylcellulose) (HPC)): 88 % of control
T/C (dose: 50.0 mg/kg/injection, schedule: Q01DX005 (ip), vehicle: Klucel (hydroxypropylcellulose) (HPC)): 88 % of control
T/C (dose: 200.0 mg/kg/injection, schedule: Q01DX005 (ip), vehicle: Klucel (hydroxypropylcellulose) (HPC)): 92 % of control

S=c1n(-c2ccc(Cl)cc2)c2nc3ccccc3nc(/c2=N\Nc2cc(Cl)ccc2Cl)n1-c1ccccn1
T/C (dose: 50.0 mg/kg/injection, schedule: Q01DX005 (ip), vehicle: saline with Tween-80): 103 % of control
T/C (dose: 100.0 mg/kg/injection, schedule: Q01DX005 (ip), vehicle: saline with Tween-80): 100 % of control

Oc1c(Cl)cc(Cl)cc1C=Nc1ccc2c(ccc3c4ccccc4ccc23)c1
T/C [1]: 105 % of control
T/C [2]: 105 % of control
T/C [3]: 109 % of control and 86 % of control

COc1ccc(C2=NNC(=O)CC2)cc1OC
T/C (dose: 12.5 mg/kg/injection, schedule: Q04DX003 (ip), vehicle: saline): 99 % of control
T/C (dose: 25.0 mg/kg/injection, schedule: Q04DX003 (ip), vehicle: saline): 101 % of control
T/C (dose: 50.0 mg/kg/injection, schedule: Q04DX003 (ip), vehicle: saline): 101 % of control

COc1ccc(C(=O)ON(c2ccccc2)C(C)(C)C)cc1
T/C (dose: 25.0 mg/kg/injection, schedule: Q01DX009 (ip), vehicle: saline with Tween-80): 97 % of control
T/C (dose: 50.0 mg/kg/injection, schedule: Q01DX009 (ip), vehicle: saline with Tween-80): 103 % of control
T/C (dose: 100.0 mg/kg/injection, schedule: Q01DX009 (ip), vehicle: saline with Tween-80): 97 % of control
